These results are taken from patent publication US5270186A, “Antitumor antibiotic BMY-42448” (Bristol-Myers Squibb Company, priority 1991, dated 1993).

In brackets after ≈: the same amount, converted by molar mass.

The test system of one data set is HCT-116 colon. Nature of the data set: In vitro cytotoxicity, crystal violet staining. It is filed as cell-based, human. The following applies: for IC50: Homo sapiens, 72 h, HCT-116 colon, 3 days with drug. The protocol: (§1) A 150 μl aliquot of culture media containing 3750 cells was plated into each well of a 96 well microtiter plate on day 0 and allowed to attach by incubation for 24 hours at 37° C. in a 5% carbon dioxide atmosphere. Drugs were then added to the top row of the wells and serially diluted down the plate (except for the untreated control column on each plate). The cells and drug were incubated together as above for 3 days. Following incubation, dead unattached cells and media were removed by inverting the plate. Cells that are undamaged by the drug remain attached to the plate. […] The fixing solution was removed by inverting the plate and the plates were air-dried.

For the next data set, the system named is P388 tumor. The data set can be described thus: iv-implanted P388 tumor model. Format: in vivo, murine (CDF1 female mice). The protocol: BMY-42448 was tested in an iv-implanted P388 tumor model. In this model 1×10^6 cells are implanted intravenously in CDF1 female mice. […] Mitomycin C given iv once at 3.2 mg/kg on the day after tumor implant extended median survival to 12 days after tumor implant. BMY-42448 was toxic when administered iv at 10 mg/kg every other day for 3 doses beginning one day after tumor implant.

Data set [1] can be described thus: In vivo P388 murine leukemia model, ip implant / ip treatment. Also on record: species or system murine (CDF1 female mice). The following applies: mouse, p388 leukemia model; ip once a day for 5 days; read-out: maximum tolerated dose. The protocol:
(§2) BMY-42448 was also tested in vivo in the P388 murine leukemia model. When 1×10^6 leukemia cells are implanted ip into CDF1 female mice, the median survival time for untreated controls was 10 days. […] Mice treated with 45 or 15 mg/kg BMY-42448 on the same schedule had median survival time of 13.5 and 13 days, respectively. Each drug treatment group consisted of 4 mice. The positive control reference drug, olivomycin A, was dosed at 0.4 and 0.2 mg/kg once a day for 5 days beginning one day after implant, with median survival times of 16.5 and 16 days, respectively. Both drugs were administered via the intraperitoneal route. Thus, BMY-42448 was active in the ip/ip P388 model with a maximum tolerated dose of 45 mg/kg.

A further data set has as its system P388 murine leukemia. The data set is described as above. Also on record: species or system murine (CDF1 female mice). Particulars: for median survival time: untreated controls 10 days. The protocol:
as §2

Another data set concerns B-16 melanoma. Nature of the data set: In vitro cytotoxicity, crystal violet staining. Format: cell-based, murine. The following applies: for IC50: Mus musculus, B16, 72 h, B-16 melanoma, 3 days with drug. The protocol: as §1

On to `CCC1CC23OC(=O)C(=C2O)C(=O)C2(CC)C(C=CC4C(OC5CC(O)C(NC(=O)c6[nH]c(Cl)cc6Cl)C(C)O5)C(C)CCC42)CC=CCC=CC3(C)C=C1C(=O)O` (stereo not shown) [BMY-42448], for which the IC50 in the data set on HCT-116 colon turned out to be 0.25 µg/mL (≈ 0.297 µM); in the data set on B-16 melanoma, 16 µg/mL (≈ 19 µM). In the data set on HCT-116 colon (compared with mitomycin C), the “activity on the HCT-116 colon cancer line compared with reference drug” value is listed as “equivalent to that of mitomycin C”. The median life span came to 8 days in the data set with P388 tumor (1.25 mg/kg iv every other day for 3 doses, untreated control 8 days); 8 days in the data set with P388 tumor (2.5 mg/kg iv every other day for 3 doses, untreated control 8 days); 8 days in the data set on P388 tumor (5 mg/kg iv every other day for 3 doses, untreated control 8 days). In addition, the toxicity entry in the data set on P388 tumor (10 mg/kg iv every other day for 3 doses beginning one day after tumor implant) is “toxic”. In addition, the “activity in iv-implanted P388 model” value with P388 tumor (5, 2.5 or 1.25 mg/kg iv every other day for 3 doses) was “inactive”. Further, the MTD in data set [1] was found to be 45 mg/kg. For the same compound, the median survival time in the data set on P388 murine leukemia (15 mg/kg ip once a day for 5 days) was found to be 13 days; in the data set on P388 murine leukemia (45 mg/kg ip once a day for 5 days) it was 13.5 days. For the same compound, in the data set on P388 murine leukemia (135 mg/kg ip once a day for 5 days beginning 1 day after tumor implant), the “outcome (drug toxicity)” value is reported as “died of drug toxicity”. Further, the “activity in the ip/ip P388 model” value in the data set on P388 murine leukemia (ip implant, ip treatment) is listed as “active”. Further, the “activity on the B-16 melanoma cell line compared with reference drug” value in the data set with B-16 melanoma (compared with cisplatin) is given as “equal to that of cisplatin”.
As to olivomycin A [reference compound], the results for the median survival time with P388 murine leukemia (0.2 mg/kg ip once a day for 5 days) and in the data set on P388 murine leukemia (0.4 mg/kg ip once a day for 5 days) were 16 days and 16.5 days, respectively.
In the case of `CO[C@@]12[C@H](COC(N)=O)C3=C(C(=O)C(C)=C(N)C3=O)N1C[C@@H]1N[C@@H]12` [Mitomycin C, reference compound], the IC50 with HCT-116 colon was found to be 0.25 µg/mL (≈ 0.748 µM); in the data set with B-16 melanoma, 0.98 µg/mL (≈ 2.93 µM). Also, the median survival with P388 tumor (3.2 mg/kg iv once on the day after tumor implant, untreated control 8 days) worked out at 12 days.

Usually IC50 stands for the point on the concentration scale where inhibition reaches its midpoint.
